Peptide text beside a SMILES is read from it. * marks the point of attachment. Dicyclohexylacetyl = O=C(C(C1CCCCC1)C1CCCCC1)*; Butanoyl(2,2-Me2) = CCC(C)(C)C(=O)*; Octanoyl(6-Me) = CCC(C)CCCCC(=O)*; Octanoyl = CCCCCCCC(=O)*
test system: C. neoformans ATCC 32045; assay type: cell-based; details: ATCC 32045, 72 h
Procedure: C. neoformans ATCC 32045 cultures were maintained on yeast medium (YM; Difco Laboratories, Detroit, Mich.) agar plates at 4° C. Prior to the assay, the cultures were grown on agar plates and incubated for 72 hrs at 26° C. Two colonies of these newly grown fungal cultures were then inoculated in 5 ml of 2×YM broth, vortexed, and diluted 10-fold in 2×YM broth, for an approximate final assay concentration of 1×105 to 5×10^5 CFU/ml. In 96-well tissue culture plates, fungal suspensions in 2×YM broth were added to the peptides dispensed at concentrations ranging from 1 mg/ml to 1 μg/ml derived from serial twofold dilutions in sterile water. The plates were then incubated for 72 hrs at 26° C. The relative percent growth of the fungi found for each test sample was determined by the optical density at 620 nm (OD620) by using a Titertek Multiskan Plus apparatus. […] The IC50 were calculated by using a sigmoidal curve-fitting software program (Graphpad Prism; ISI Software, San Diego, Calif.).

| SMILES | average IC50 [µg/mL] | average MIC [µg/mL] |
| --- | --- | --- |
| N=C(N)NCCC[C@H](NC(=O)[C@H](CCCNC(=N)N)NC(=O)[C@H](Cc1c[nH]c2ccccc12)NC(=O)[C@H](CCCNC(=N)N)NC(=O)[C@H](CCCCN)NC(=O)[C@H](CCCNC(=N)N)NC(=O)[C@H](Cc1c[nH]c2ccccc12)NC(=O)[C@H](Cc1ccccc1)NC(=O)[C@@H]1CCCN1)C(N)=O [VS1-31, PFWRKRWRR-NH2] (H-PFWRKRWRR-NH2; N-terminus assumed) | 8 | 32 |
| CC[C@H](C)[C@H](NC(=O)[C@H](CCCNC(=N)N)NC(=O)[C@@H](NC(=O)[C@H](CCCNC(=N)N)NC(=O)[C@H](Cc1c[nH]c2ccccc12)NC(=O)[C@H](Cc1ccccc1)NC(=O)[C@H](Cc1ccccc1)NC(=O)[C@@H]1CCCN1)[C@@H](C)CC)C(=O)N[C@@H](CCCNC(=N)N)C(=O)N[C@@H](CCCNC(=N)N)C(N)=O [VS1-24, PFFWRIRIRR-NH2] (H-PFFWRIRIRR-NH2; N-terminus assumed) | 3 | 8 |
| CCCCCCCC(=O)N[C@@H](Cc1ccccc1)C(=O)N[C@@H](Cc1c[nH]c2ccccc12)C(=O)N[C@@H](CCC(N)=O)C(=O)N[C@@H](CCCNC(=N)N)C(=O)N[C@@H](CC(N)=O)C(=O)N[C@H](C(=O)N[C@@H](CCCNC(=N)N)C(=O)N[C@@H](CCCCN)C(=O)N[C@@H](Cc1c[nH]c2ccccc12)C(=O)N[C@@H](CCCNC(=N)N)C(N)=O)[C@@H](C)CC [VS1-40, octanoyl FWQRNIRKWR-NH2] (Octanoyl-FWQRNIRKWR-NH2) | 2 | 8 |
| CCC(C)CCCCC(=O)N[C@@H](Cc1ccccc1)C(=O)N[C@@H](Cc1c[nH]c2ccccc12)C(=O)N[C@@H](CCC(N)=O)C(=O)N[C@@H](CCCNC(=N)N)C(=O)N[C@@H](CC(N)=O)C(=O)N[C@H](C(=O)N[C@@H](CCCNC(=N)N)C(=O)N[C@@H](CCCCN)C(=O)N[C@@H](Cc1c[nH]c2ccccc12)C(=O)N[C@@H](CCCNC(=N)N)C(N)=O)[C@@H](C)CC (stereo partly shown) [VS1-43, 6-methyloctanoyl FWQRNIRKWR-NH2] ({Octanoyl(6-Me)}-FWQRNIRKWR-NH2) | 6 | 16 |
| CCCCCCCC(=O)N[C@@H](Cc1ccccc1)C(=O)N[C@@H](Cc1c[nH]c2ccccc12)C(=O)N[C@@H](CCCNC(=N)N)C(=O)N[C@@H](CCCNC(=N)N)C(=O)N[C@@H](Cc1ccccc1)C(=O)N[C@@H](Cc1c[nH]c2ccccc12)C(=O)N[C@@H](CCCNC(=N)N)C(=O)N[C@@H](CCCNC(=N)N)C(N)=O [VS1-60, octanoyl FWRRFWRR-NH2] (Octanoyl-FWRRFWRR-NH2) | 10 | 32 |
| CC[C@H](C)[C@H](NC(=O)[C@H](CCCNC(=N)N)NC(=O)[C@H](CCCCN)NC(=O)[C@H](Cc1c[nH]c2ccccc12)NC(=O)[C@H](CCCNC(=N)N)NC(=O)C(C1CCCCC1)C1CCCCC1)C(=O)N[C@@H](CC(N)=O)C(=O)N[C@@H](CCCNC(=N)N)C(=O)N[C@@H](CCC(N)=O)C(=O)N[C@@H](Cc1c[nH]c2ccccc12)C(=O)N[C@@H](Cc1ccccc1)C(N)=O [VS1-49, dicyclohexylacetyl RWKRINRQWF-NH2] (Dicyclohexylacetyl-RWKRINRQWF-NH2) | 2 | 4 |
| CCC(C)CCCCC(=O)N[C@@H](CCCNC(=N)N)C(=O)N[C@@H](Cc1c[nH]c2ccccc12)C(=O)N[C@@H](CCCCN)C(=O)N[C@@H](CCCNC(=N)N)C(=O)N[C@H](C(=O)N[C@@H](CC(N)=O)C(=O)N[C@@H](CCCNC(=N)N)C(=O)N[C@@H](CCC(N)=O)C(=O)N[C@@H](Cc1c[nH]c2ccccc12)C(=O)N[C@@H](Cc1ccccc1)C(N)=O)[C@@H](C)CC (stereo partly shown) [VS1-48, 6-methyloctanoyl RWKRINRQWF-NH2] ({Octanoyl(6-Me)}-RWKRINRQWF-NH2) | 2 | 8 |
| CCC(C)(C)C(=O)N[C@@H](Cc1ccccc1)C(=O)N[C@@H](Cc1c[nH]c2ccccc12)C(=O)N[C@@H](CCCNC(=N)N)C(=O)N[C@@H](CCCNC(=N)N)C(=O)N[C@@H](Cc1ccccc1)C(=O)N[C@@H](Cc1c[nH]c2ccccc12)C(=O)N[C@@H](CCCNC(=N)N)C(=O)N[C@@H](CCCNC(=N)N)C(N)=O [VS1-62, 2,2-dimethylbutanoyl FWRRFWRR-NH2] ({Butanoyl(2,2-Me2)}-FWRRFWRR-NH2) | 4 | 16 |

The next lines start with the values.

| average IC50 [µg/mL] | average MIC [µg/mL] | SMILES |
| --- | --- | --- |
| 6 | 16 | CCC(C)CCCCC(=O)N[C@@H](Cc1ccccc1)C(=O)N[C@@H](Cc1c[nH]c2ccccc12)C(=O)N[C@@H](CCCNC(=N)N)C(=O)N[C@H](C(=O)N[C@@H](CCCNC(=N)N)C(=O)N[C@H](C(=O)N[C@@H](CCCNC(=N)N)C(=O)N[C@@H](CCCNC(=N)N)C(N)=O)[C@@H](C)CC)[C@@H](C)CC (stereo partly shown) [VS1-58, 6-methyloctanoyl FWRIRIRR-NH2] ({Octanoyl(6-Me)}-FWRIRIRR-NH2) |
| 4 | 16 | CCCCCCCC(=O)N[C@@H](Cc1ccccc1)C(=O)N[C@@H](Cc1c[nH]c2ccccc12)C(=O)N[C@@H](CCCNC(=N)N)C(=O)N[C@H](C(=O)N[C@@H](CCCNC(=N)N)C(=O)N[C@H](C(=O)N[C@@H](CCCNC(=N)N)C(=O)N[C@@H](CCCNC(=N)N)C(N)=O)[C@@H](C)CC)[C@@H](C)CC [VS1-55, octanoyl FWRIRIRR-NH2] (Octanoyl-FWRIRIRR-NH2) |
| 2 | 4 | CC[C@H](C)[C@H](NC(=O)[C@H](CCCNC(=N)N)NC(=O)[C@@H](NC(=O)[C@H](CCCNC(=N)N)NC(=O)[C@H](Cc1c[nH]c2ccccc12)NC(=O)[C@H](Cc1ccccc1)NC(=O)C(C)(C)CC)[C@@H](C)CC)C(=O)N[C@@H](CCCNC(=N)N)C(=O)N[C@@H](CCCNC(=N)N)C(N)=O [VS1-57, 2,2-dimethylbutanoyl FWRIRIRR-NH2] ({Butanoyl(2,2-Me2)}-FWRIRIRR-NH2) |
| 8 | 32 | CC[C@H](C)[C@H](NC(=O)[C@H](CCCNC(=N)N)NC(=O)[C@H](CCCCN)NC(=O)[C@H](CCCNC(=N)N)NC(=O)[C@H](Cc1c[nH]c2ccccc12)NC(=O)[C@H](Cc1ccccc1)NC(=O)[C@@H]1CCCN1)C(=O)N[C@@H](CCCNC(=N)N)C(=O)N[C@@H](CCCNC(=N)N)C(N)=O [VS1-28, PFWRKRIRR-NH2] (H-PFWRKRIRR-NH2; N-terminus assumed) |
| 8 | 32 | CC[C@H](C)[C@H](NC(=O)[C@H](CCCNC(=N)N)NC(=O)[C@H](C)NC(=O)[C@H](CCCNC(=N)N)NC(=O)[C@H](Cc1c[nH]c2ccccc12)NC(=O)[C@H](Cc1ccccc1)NC(=O)[C@@H]1CCCN1)C(=O)N[C@@H](CCCNC(=N)N)C(=O)N[C@@H](CCCNC(=N)N)C(N)=O [VS1-27, PFWRARIRR-NH2] (H-PFWRARIRR-NH2; N-terminus assumed) |
| 6 | 16 | CCCCCCCC(=O)N1CCC[C@H]1C(=O)N[C@@H](Cc1ccccc1)C(=O)N[C@@H](Cc1c[nH]c2ccccc12)C(=O)N[C@@H](CCCNC(=N)N)C(=O)N[C@H](C(=O)N[C@@H](CCCNC(=N)N)C(=O)N[C@H](C(=O)N[C@@H](CCCNC(=N)N)C(=O)N[C@@H](CCCNC(=N)N)C(N)=O)[C@@H](C)CC)[C@@H](C)CC [VS1-50, octanoyl PFWRIRIRR-NH2] (Octanoyl-PFWRIRIRR-NH2) |

Reference: patent US7960339B2, “Antimicrobial peptides” (Österreichische Akademie der Wissenschaften, priority 2006, dated 2011)
